From ChEMBL document CHEMBL4507292 (2021)

Legend:
[1] = biological target: Casein kinase II subunit alpha (Homo sapiens) (UniProt P68400); conditions: Compound concentration 1000.0 nM
[2] = biological target: Serine/threonine-protein kinase 35 (Homo sapiens) (UniProt Q8TDR2); conditions: Compound concentration 1000.0 nM
[3] = test system: Tyrosine-protein kinase ABL1 (Homo sapiens), P00519 [F317L]; conditions: Compound concentration 1000.0 nM
[4] = biological target: Rho-associated protein kinase 1 (Homo sapiens) (UniProt Q13464); conditions: Compound concentration 1000.0 nM
[5] = biological target: Serine/threonine-protein kinase SIK2 (Homo sapiens) (UniProt Q9H0K1); conditions: Compound concentration 1000.0 nM
[6] = test system: ALK tyrosine kinase receptor (Homo sapiens), Q9UM73 [C1156Y]; conditions: Compound concentration 1000.0 nM
[7] = test system: Epidermal growth factor receptor (Homo sapiens), P00533 [G719S]; conditions: Compound concentration 1000.0 nM
[8] = biological target: Tyrosine-protein kinase JAK3 (Homo sapiens) (UniProt P52333); conditions: Compound concentration 1000.0 nM
[9] = biological target: Tyrosine-protein kinase Yes (Homo sapiens) (UniProt P07947); conditions: Compound concentration 1000.0 nM
[10] = biological target: Serine/threonine-protein kinase TAO2 (Homo sapiens) (UniProt Q9UL54); conditions: Compound concentration 1000.0 nM
[11] = test system: Tyrosine-protein kinase ABL1 (Homo sapiens), P00519 [Q252H]; conditions: Compound concentration 1000.0 nM
[12] = biological target: Receptor tyrosine-protein kinase erbB-4 (Homo sapiens) (UniProt Q15303); conditions: Compound concentration 1000.0 nM
[13] = biological target: Myosin light chain kinase family member 4 (Homo sapiens) (UniProt Q86YV6); conditions: Compound concentration 1000.0 nM
[14] = biological target: Activin receptor type-2A (Homo sapiens) (UniProt P27037); conditions: Compound concentration 1000.0 nM
[15] = biological target: Tyrosine-protein kinase ABL2 (Homo sapiens) (UniProt P42684); conditions: Compound concentration 1000.0 nM
[16] = test system: Phosphatidylinositol 4,5-bisphosphate 3-kinase catalytic subunit alpha isoform (Homo sapiens), P42336 [C420R]; conditions: Compound concentration 1000.0 nM
[17] = biological target: Histamine H2 receptor (Homo sapiens) (UniProt P25021); conditions: Compound concentration 10.0 uM
[18] = test system: Leucine-rich repeat serine/threonine-protein kinase 2 (Homo sapiens), Q5S007 [G2019S]; conditions: Compound concentration 1000.0 nM
[19] = biological target: Focal adhesion kinase 1 (Homo sapiens) (UniProt Q05397); conditions: Compound concentration 1000.0 nM
[20] = biological target: Serine/threonine-protein kinase PLK1 (Homo sapiens) (UniProt P53350); conditions: Compound concentration 1000.0 nM
[21] = biological target: Mitogen-activated protein kinase kinase kinase 4 (Homo sapiens) (UniProt Q9Y6R4); conditions: Compound concentration 1000.0 nM
[22] = biological target: Mitogen-activated protein kinase 1 (Homo sapiens) (UniProt P28482); conditions: Compound concentration 1000.0 nM
[23] = biological target: Mitogen-activated protein kinase kinase kinase 1 (Homo sapiens) (UniProt Q13233); conditions: Compound concentration 1000.0 nM
[24] = biological target: Serine/threonine-protein kinase Nek11 (Homo sapiens) (UniProt Q8NG66); conditions: Compound concentration 1000.0 nM
[25] = biological target: Tyrosine-protein kinase Fyn (Homo sapiens) (UniProt P06241); conditions: Compound concentration 1000.0 nM
[26] = biological target: Serine/threonine-protein kinase RIO1 (Homo sapiens) (UniProt Q9BRS2); conditions: Compound concentration 1000.0 nM
[27] = biological target: Homeodomain-interacting protein kinase 1 (Homo sapiens) (UniProt Q86Z02); conditions: Compound concentration 1000.0 nM
[28] = biological target: Serine/threonine-protein kinase Sgk1 (Homo sapiens) (UniProt O00141); conditions: Compound concentration 1000.0 nM
[29] = biological target: Peripheral plasma membrane protein CASK (Homo sapiens) (UniProt O14936); conditions: Compound concentration 1000.0 nM
[30] = test system: Tyrosine-protein kinase ABL1 (Homo sapiens), P00519 [F317I]; conditions: Compound concentration 1000.0 nM
[31] = biological target: Serine/threonine-protein kinase 38 (Homo sapiens) (UniProt Q15208); conditions: Compound concentration 1000.0 nM
[32] = biological target: Serine/threonine-protein kinase WNK2 (Homo sapiens) (UniProt Q9Y3S1); conditions: Compound concentration 1000.0 nM
[33] = biological target: Calcium/calmodulin-dependent protein kinase type II subunit delta (Homo sapiens) (UniProt Q13557); conditions: Compound concentration 1000.0 nM
[34] = biological target: Rhodopsin kinase GRK1 (Homo sapiens) (UniProt Q15835); conditions: Compound concentration 1000.0 nM
[35] = biological target: G protein-coupled receptor kinase 4 (Homo sapiens) (UniProt P32298); conditions: Compound concentration 1000.0 nM
[36] = biological target: Cyclin-dependent kinase 5 (Homo sapiens) (UniProt Q00535); conditions: Compound concentration 1000.0 nM
[37] = biological target: Phosphatidylinositol 4-phosphate 5-kinase type-1 alpha (Homo sapiens) (UniProt Q99755); conditions: Compound concentration 1000.0 nM
[38] = test system: Mast/stem cell growth factor receptor Kit (Homo sapiens), P10721 [V559D,T670I]; conditions: Compound concentration 1000.0 nM
[39] = biological target: Macrophage colony-stimulating factor 1 receptor (Homo sapiens) (UniProt P07333); conditions: Compound concentration 1000.0 nM
[40] = test system: ALK tyrosine kinase receptor (Homo sapiens), Q9UM73 [L1196M]; conditions: Compound concentration 1000.0 nM
[41] = biological target: Cyclin-dependent kinase 16 (Homo sapiens) (UniProt Q00536); conditions: Compound concentration 1000.0 nM
[42] = biological target: D(3) dopamine receptor (Homo sapiens) (UniProt P35462); conditions: Compound concentration 10.0 uM
[43] = biological target: Tyrosine-protein kinase receptor TYRO3 (Homo sapiens) (UniProt Q06418); conditions: Compound concentration 1000.0 nM
[44] = biological target: Serine/threonine-protein kinase 38-like (Homo sapiens) (UniProt Q9Y2H1); conditions: Compound concentration 1000.0 nM
[45] = biological target: Uncharacterized serine/threonine-protein kinase SBK3 (Homo sapiens) (UniProt P0C264); conditions: Compound concentration 1000.0 nM

Sequence of Serine/threonine-protein kinase SIK2 (Homo sapiens) (Q9H0K1 whole entry, looked up): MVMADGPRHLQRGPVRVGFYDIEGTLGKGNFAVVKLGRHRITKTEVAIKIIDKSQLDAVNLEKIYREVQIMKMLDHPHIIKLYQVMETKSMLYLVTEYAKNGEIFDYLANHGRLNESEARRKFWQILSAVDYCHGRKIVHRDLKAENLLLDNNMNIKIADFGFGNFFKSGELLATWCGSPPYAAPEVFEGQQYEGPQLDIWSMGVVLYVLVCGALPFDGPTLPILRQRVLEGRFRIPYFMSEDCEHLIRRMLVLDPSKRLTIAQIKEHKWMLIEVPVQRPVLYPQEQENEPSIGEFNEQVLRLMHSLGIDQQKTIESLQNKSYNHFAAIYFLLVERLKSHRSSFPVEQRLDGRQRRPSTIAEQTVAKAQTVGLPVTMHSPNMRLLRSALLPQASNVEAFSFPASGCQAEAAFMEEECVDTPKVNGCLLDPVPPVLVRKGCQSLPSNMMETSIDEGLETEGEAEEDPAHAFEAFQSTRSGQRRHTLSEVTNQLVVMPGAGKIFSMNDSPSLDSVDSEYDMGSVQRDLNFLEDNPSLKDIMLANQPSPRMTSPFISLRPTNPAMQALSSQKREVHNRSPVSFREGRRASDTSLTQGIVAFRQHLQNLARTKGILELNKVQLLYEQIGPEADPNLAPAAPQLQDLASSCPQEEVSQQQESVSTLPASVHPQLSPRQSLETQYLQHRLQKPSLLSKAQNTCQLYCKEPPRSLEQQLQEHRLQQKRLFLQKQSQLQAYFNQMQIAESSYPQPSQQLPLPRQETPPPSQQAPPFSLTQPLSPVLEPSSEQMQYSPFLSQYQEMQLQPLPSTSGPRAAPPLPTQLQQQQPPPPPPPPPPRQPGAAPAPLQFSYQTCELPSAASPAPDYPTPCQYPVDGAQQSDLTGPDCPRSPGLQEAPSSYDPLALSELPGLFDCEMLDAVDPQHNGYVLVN
Sequence of Phosphatidylinositol 4,5-bisphosphate 3-kinase catalytic subunit alpha isoform (Homo sapiens), P42336 [C420R] (P42336 whole entry C420R, canonical isoform): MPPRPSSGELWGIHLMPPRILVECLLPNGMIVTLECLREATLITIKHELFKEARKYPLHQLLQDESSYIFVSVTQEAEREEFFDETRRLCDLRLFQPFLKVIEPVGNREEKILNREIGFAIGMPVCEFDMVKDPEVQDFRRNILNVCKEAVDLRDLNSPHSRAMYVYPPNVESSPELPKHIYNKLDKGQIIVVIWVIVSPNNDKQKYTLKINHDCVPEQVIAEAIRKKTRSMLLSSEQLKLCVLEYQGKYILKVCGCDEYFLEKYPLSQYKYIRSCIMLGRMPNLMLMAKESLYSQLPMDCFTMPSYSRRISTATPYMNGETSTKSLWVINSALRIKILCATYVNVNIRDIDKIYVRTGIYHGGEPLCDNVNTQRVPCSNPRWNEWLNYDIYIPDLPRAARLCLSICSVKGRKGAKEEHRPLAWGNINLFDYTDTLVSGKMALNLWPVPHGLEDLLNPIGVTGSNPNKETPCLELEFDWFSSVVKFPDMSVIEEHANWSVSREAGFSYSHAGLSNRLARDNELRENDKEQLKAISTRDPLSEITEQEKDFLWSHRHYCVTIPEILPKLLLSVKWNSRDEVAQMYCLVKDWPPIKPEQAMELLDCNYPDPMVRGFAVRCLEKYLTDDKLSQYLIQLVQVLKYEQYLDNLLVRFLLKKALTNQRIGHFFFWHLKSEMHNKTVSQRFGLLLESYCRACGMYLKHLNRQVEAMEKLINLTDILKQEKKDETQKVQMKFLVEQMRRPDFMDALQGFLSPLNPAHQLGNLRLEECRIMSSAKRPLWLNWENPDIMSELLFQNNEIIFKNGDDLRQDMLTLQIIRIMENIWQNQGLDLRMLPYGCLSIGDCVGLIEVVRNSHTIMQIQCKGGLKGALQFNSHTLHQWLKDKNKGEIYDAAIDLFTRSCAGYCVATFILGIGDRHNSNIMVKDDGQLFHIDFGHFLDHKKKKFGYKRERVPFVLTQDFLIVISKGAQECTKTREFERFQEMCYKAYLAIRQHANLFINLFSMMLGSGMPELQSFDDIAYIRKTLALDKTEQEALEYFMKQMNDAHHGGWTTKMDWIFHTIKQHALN
Sequence of Macrophage colony-stimulating factor 1 receptor (Homo sapiens) (P07333 whole entry): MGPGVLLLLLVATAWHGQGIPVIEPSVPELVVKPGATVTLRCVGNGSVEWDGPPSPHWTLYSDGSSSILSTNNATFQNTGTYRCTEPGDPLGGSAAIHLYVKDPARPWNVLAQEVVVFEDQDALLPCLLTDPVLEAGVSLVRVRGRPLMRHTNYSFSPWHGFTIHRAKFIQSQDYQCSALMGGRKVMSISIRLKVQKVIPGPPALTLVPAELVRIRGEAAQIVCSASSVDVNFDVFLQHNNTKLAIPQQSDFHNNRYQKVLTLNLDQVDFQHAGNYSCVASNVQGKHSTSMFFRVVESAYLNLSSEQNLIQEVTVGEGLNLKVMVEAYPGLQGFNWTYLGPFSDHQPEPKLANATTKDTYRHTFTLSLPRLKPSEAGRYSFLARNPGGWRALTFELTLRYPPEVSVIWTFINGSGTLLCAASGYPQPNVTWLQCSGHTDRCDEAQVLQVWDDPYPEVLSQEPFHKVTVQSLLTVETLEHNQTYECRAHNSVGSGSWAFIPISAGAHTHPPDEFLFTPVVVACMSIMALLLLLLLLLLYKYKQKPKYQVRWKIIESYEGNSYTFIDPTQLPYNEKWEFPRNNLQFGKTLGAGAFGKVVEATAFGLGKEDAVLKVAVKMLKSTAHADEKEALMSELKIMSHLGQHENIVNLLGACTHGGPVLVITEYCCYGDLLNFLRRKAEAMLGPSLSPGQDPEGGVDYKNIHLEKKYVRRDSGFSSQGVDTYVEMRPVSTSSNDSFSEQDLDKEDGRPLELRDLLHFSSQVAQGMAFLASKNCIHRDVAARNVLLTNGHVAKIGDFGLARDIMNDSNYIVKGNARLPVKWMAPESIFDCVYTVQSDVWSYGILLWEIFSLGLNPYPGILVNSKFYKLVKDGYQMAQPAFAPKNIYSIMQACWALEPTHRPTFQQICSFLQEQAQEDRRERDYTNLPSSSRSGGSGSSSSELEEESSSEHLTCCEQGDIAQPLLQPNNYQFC
Sequence of Tyrosine-protein kinase receptor TYRO3 (Homo sapiens) (Q06418 whole entry): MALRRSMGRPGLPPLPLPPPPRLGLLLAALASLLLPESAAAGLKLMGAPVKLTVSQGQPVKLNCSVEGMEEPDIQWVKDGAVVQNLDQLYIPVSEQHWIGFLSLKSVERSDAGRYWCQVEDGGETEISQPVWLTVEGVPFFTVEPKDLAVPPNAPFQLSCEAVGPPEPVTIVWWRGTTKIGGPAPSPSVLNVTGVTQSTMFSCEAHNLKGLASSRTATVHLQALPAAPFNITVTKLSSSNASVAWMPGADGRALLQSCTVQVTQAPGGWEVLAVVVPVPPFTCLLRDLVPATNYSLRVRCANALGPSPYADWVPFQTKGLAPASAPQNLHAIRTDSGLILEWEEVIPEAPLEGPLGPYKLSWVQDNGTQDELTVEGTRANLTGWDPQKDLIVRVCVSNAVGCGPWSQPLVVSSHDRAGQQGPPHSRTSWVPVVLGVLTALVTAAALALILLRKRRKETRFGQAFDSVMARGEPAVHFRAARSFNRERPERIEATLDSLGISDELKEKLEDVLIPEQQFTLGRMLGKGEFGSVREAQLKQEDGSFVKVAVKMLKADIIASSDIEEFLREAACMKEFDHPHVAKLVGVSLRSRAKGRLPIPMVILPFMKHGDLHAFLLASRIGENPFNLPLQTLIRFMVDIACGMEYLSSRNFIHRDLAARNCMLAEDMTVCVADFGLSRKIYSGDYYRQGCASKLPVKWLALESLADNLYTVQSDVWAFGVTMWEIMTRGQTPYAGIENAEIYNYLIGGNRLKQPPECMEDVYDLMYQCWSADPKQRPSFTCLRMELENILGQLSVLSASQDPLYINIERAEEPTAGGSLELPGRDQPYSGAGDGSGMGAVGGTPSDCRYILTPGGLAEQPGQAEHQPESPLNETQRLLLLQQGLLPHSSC
Sequence of Tyrosine-protein kinase ABL2 (Homo sapiens) (P42684 whole entry, canonical isoform): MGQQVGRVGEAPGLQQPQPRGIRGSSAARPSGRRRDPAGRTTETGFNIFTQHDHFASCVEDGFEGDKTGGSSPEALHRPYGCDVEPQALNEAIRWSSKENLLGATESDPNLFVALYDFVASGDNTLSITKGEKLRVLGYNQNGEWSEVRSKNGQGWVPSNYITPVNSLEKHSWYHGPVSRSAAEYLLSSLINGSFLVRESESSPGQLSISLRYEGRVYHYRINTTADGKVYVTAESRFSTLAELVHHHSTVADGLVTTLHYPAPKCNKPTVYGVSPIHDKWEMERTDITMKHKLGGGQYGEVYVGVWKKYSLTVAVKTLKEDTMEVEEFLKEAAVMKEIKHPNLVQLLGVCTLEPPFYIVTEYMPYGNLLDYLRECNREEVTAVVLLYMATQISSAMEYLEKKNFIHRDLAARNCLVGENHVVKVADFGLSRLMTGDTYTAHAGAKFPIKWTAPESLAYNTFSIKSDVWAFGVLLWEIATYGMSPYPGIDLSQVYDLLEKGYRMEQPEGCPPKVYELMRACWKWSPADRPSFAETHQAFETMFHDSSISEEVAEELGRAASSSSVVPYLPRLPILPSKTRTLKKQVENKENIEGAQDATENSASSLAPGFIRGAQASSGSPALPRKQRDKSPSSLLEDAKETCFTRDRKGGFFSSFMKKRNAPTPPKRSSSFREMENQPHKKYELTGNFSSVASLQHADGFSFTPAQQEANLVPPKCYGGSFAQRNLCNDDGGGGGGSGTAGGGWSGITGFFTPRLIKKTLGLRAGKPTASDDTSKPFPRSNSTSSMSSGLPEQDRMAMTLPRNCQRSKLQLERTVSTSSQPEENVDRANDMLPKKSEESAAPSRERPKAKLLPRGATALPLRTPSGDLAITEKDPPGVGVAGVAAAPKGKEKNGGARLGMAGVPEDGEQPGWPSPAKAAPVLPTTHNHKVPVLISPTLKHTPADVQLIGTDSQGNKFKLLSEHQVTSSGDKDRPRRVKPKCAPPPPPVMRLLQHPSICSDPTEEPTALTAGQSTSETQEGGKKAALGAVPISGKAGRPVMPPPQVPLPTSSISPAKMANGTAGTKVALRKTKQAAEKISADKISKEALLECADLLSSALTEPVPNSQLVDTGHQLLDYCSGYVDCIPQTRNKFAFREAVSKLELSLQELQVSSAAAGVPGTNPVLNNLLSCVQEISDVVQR

O=C(O)c1cc(-c2ccc(C3CCNCC3)cc2)c2ccc(-c3ccc(C(F)(F)F)cc3)cc2c1 [PPTN]
residual activity [1]: 100%
residual activity [2]: 100%
residual activity [3]: 100%
residual activity [4]: 100%
residual activity [5]: 100%
residual activity [6]: 100%
residual activity [7]: 100%
residual activity [8]: 100%
residual activity [9]: 100%
residual activity [10]: 100%
residual activity [11]: 90%
residual activity [12]: 100%
residual activity [13]: 94%
residual activity [14]: 100%
residual activity [15]: 100%
residual activity [16]: 95%
inhibition [17]: 28%
residual activity [18]: 100%
residual activity [19]: 100%
residual activity [20]: 88%
residual activity [21]: 100%
residual activity [22]: 97%
residual activity [23]: 100%
residual activity [24]: 100%
residual activity [25]: 100%
residual activity [26]: 100%
residual activity [27]: 97%
residual activity [28]: 100%
residual activity [29]: 100%
residual activity [30]: 100%
residual activity [31]: 83%
residual activity [32]: 100%
residual activity [33]: 100%
residual activity [34]: 100%
residual activity [35]: 72%
residual activity [36]: 100%
residual activity [37]: 78%
residual activity [38]: 100%
residual activity [39]: 85%
residual activity [40]: 100%
residual activity [41]: 100%
inhibition [42]: 65.6%
residual activity [43]: 100%
residual activity [44]: 100%
residual activity [45]: 75%

Cc1c(C(=O)O)cc(-c2ccc(C3CCNCC3)cc2)c2ccc(-c3ccc(C(F)(F)F)cc3)cc12 [PPTN-NC]
residual activity [1]: 100%
residual activity [2]: 100%
residual activity [3]: 100%
residual activity [4]: 100%
residual activity [5]: 100%
residual activity [6]: 100%
residual activity [7]: 94%
residual activity [8]: 100%
residual activity [9]: 100%
residual activity [10]: 100%
residual activity [11]: 100%
residual activity [12]: 100%
residual activity [13]: 100%
residual activity [14]: 87%
residual activity [15]: 100%
residual activity [16]: 100%
inhibition [17]: 9%
residual activity [18]: 100%
residual activity [19]: 100%
residual activity [20]: 94%
residual activity [21]: 100%
residual activity [22]: 100%
residual activity [23]: 100%
residual activity [24]: 100%
residual activity [25]: 100%
residual activity [26]: 100%
residual activity [27]: 100%
residual activity [28]: 100%
residual activity [29]: 100%
residual activity [30]: 100%
residual activity [31]: 84%
residual activity [32]: 100%
residual activity [33]: 100%
residual activity [34]: 100%
residual activity [35]: 100%
residual activity [36]: 100%
residual activity [37]: 70%
residual activity [38]: 100%
residual activity [39]: 96%
residual activity [40]: 100%
residual activity [41]: 100%
inhibition [42]: 46.7%
residual activity [43]: 100%
residual activity [44]: 100%
residual activity [45]: 80%
